# Measurements as given in PubChem BioAssay AID1259407 (Chemical Carcinogenesis Research Information System (CCRIS), 2018).
# The source made the active and inactive calls. No rule for the calls is given here.
# System: CCRIS mutagenicity, Ames/micronucleus/aberration tests
# Test: CCRIS mutagenicity studies
# [1] = Test System: AMES SALMONELLA TYPHIMURIUM, Strain/Indicator: TA98, Metabolic Activation: NONE, Method: STANDARD PLATE
# [2] = Test System: AMES SALMONELLA TYPHIMURIUM, Strain/Indicator: TA98, Metabolic Activation: RAT, LIVER, S-9, AROCLOR 1254, Method: STANDARD PLATE
# [3] = Test System: AMES SALMONELLA TYPHIMURIUM, Strain/Indicator: TA100, Metabolic Activation: NONE, Method: STANDARD PLATE
# [4] = Test System: AMES SALMONELLA TYPHIMURIUM, Strain/Indicator: TA100, Metabolic Activation: RAT, LIVER, S-9, AROCLOR 1254, Method: STANDARD PLATE
# [5] = Test System: AMES SALMONELLA TYPHIMURIUM, Strain/Indicator: TA102, Metabolic Activation: NONE, Method: STANDARD PLATE
# [6] = Test System: AMES SALMONELLA TYPHIMURIUM, Strain/Indicator: TA102, Metabolic Activation: RAT, LIVER, S-9, AROCLOR 1254, Method: STANDARD PLATE
structure (smiles),measurement,setting,value
Clc1nc(Cl)nc(Nc2ccccc2Cl)n1,mutagenic call,"Test System: AMES SALMONELLA TYPHIMURIUM, Strain/Indicator: TA97, Metabolic Activation: HAMSTER, LIVER, S-9, AROCLOR 1254 (10 OR 30%), Method: PREINCUBATION",inactive; negative
same,mutagenic call,"Test System: AMES SALMONELLA TYPHIMURIUM, Strain/Indicator: TA97, Metabolic Activation: RAT, LIVER, S-9, AROCLOR 1254 (10 OR 30%), Method: PREINCUBATION",inactive; negative
same,mutagenic call,"Test System: AMES SALMONELLA TYPHIMURIUM, Strain/Indicator: TA98, Metabolic Activation: HAMSTER, LIVER, S-9, AROCLOR 1254 (10%), Method: PREINCUBATION",inactive; negative
same,mutagenic call,"Test System: AMES SALMONELLA TYPHIMURIUM, Strain/Indicator: TA98, Metabolic Activation: HAMSTER, LIVER, S-9, AROCLOR 1254 (30%), Method: PREINCUBATION",inactive; negative
same,mutagenic call,"Test System: AMES SALMONELLA TYPHIMURIUM, Strain/Indicator: TA98, Metabolic Activation: RAT, LIVER, S-9, AROCLOR 1254 (10%), Method: PREINCUBATION",inactive; negative
same,mutagenic call,"Test System: AMES SALMONELLA TYPHIMURIUM, Strain/Indicator: TA98, Metabolic Activation: RAT, LIVER, S-9, AROCLOR 1254 (30%), Method: PREINCUBATION",inactive; negative
same,mutagenic call,"Test System: AMES SALMONELLA TYPHIMURIUM, Strain/Indicator: TA100, Metabolic Activation: HAMSTER, LIVER, S-9, AROCLOR 1254 (10%), Method: PREINCUBATION",inactive; negative
same,mutagenic call,"Test System: AMES SALMONELLA TYPHIMURIUM, Strain/Indicator: TA100, Metabolic Activation: HAMSTER, LIVER, S-9, AROCLOR 1254 (30%), Method: PREINCUBATION",inactive; negative
same,mutagenic call,"Test System: AMES SALMONELLA TYPHIMURIUM, Strain/Indicator: TA100, Metabolic Activation: NONE, Method: PREINCUBATION",inactive; negative
same,mutagenic call,"Test System: AMES SALMONELLA TYPHIMURIUM, Strain/Indicator: TA100, Metabolic Activation: RAT, LIVER, S-9, AROCLOR 1254 (10%), Method: PREINCUBATION",inactive; negative
same,mutagenic call,"Test System: AMES SALMONELLA TYPHIMURIUM, Strain/Indicator: TA100, Metabolic Activation: RAT, LIVER, S-9, AROCLOR 1254 (30%), Method: PREINCUBATION",inactive; negative
same,mutagenic call,"Test System: AMES SALMONELLA TYPHIMURIUM, Strain/Indicator: TA1535, Metabolic Activation: HAMSTER, LIVER, S-9, AROCLOR 1254 (10 OR 30%), Method: PREINCUBATION",inactive; negative
same,mutagenic call,"Test System: AMES SALMONELLA TYPHIMURIUM, Strain/Indicator: TA1535, Metabolic Activation: RAT, LIVER, S-9, AROCLOR 1254 (10 OR 30%), Method: PREINCUBATION",inactive; negative
same,mutagenic call,"Test System: AMES SALMONELLA TYPHIMURIUM, Strain/Indicator: TA1537, Metabolic Activation: HAMSTER, LIVER, S-9, AROCLOR 1254 (10 OR 30%), Method: PREINCUBATION",inactive; negative
same,mutagenic call,"Test System: AMES SALMONELLA TYPHIMURIUM, Strain/Indicator: TA1537, Metabolic Activation: RAT, LIVER, S-9, AROCLOR 1254 (10 OR 30%), Method: PREINCUBATION",inactive; negative
same,mutagenic call,"Test System: CHINESE HAMSTER OVARY, Strain/Indicator: CHO-K1-BH4 (HGPRT)/6-THIOGUANINE, Metabolic Activation: NONE",inactive; negative
same,mutagenic call,"Test System: CHINESE HAMSTER OVARY, Strain/Indicator: CHO-K1-BH4 (HGPRT)/6-THIOGUANINE, Metabolic Activation: S-9",inactive; negative
same,mutagenic call,"Test System: E. COLI, Strain/Indicator: WP2 UVRA, Metabolic Activation: HAMSTER, LIVER, S-9, AROCLOR 1254, Method: STANDARD PLATE",inactive; negative
same,mutagenic call,"Test System: E. COLI, Strain/Indicator: WP2 UVRA, Metabolic Activation: HAMSTER, LIVER, S-9, Method: STANDARD PLATE",inactive; negative
same,mutagenic call,"Test System: E. COLI, Strain/Indicator: WP2 UVRA, Metabolic Activation: MOUSE, LIVER, S-9, AROCLOR 1254, Method: STANDARD PLATE",inactive; negative
same,mutagenic call,"Test System: E. COLI, Strain/Indicator: WP2 UVRA, Metabolic Activation: MOUSE, LIVER, S-9, Method: STANDARD PLATE",inactive; negative
same,mutagenic call,"Test System: E. COLI, Strain/Indicator: WP2 UVRA, Metabolic Activation: NONE, Method: STANDARD PLATE",inactive; negative
same,mutagenic call,"Test System: E. COLI, Strain/Indicator: WP2 UVRA, Metabolic Activation: RAT, LIVER, S-9, AROCLOR 1254, Method: STANDARD PLATE",inactive; negative
same,mutagenic call,"Test System: E. COLI, Strain/Indicator: WP2 UVRA, Metabolic Activation: RAT, LIVER, S-9, Method: STANDARD PLATE",inactive; negative
same,mutagenic call,"Test System: MOUSE LYMPHOMA, Strain/Indicator: L5178Y (TK+/TK-), Metabolic Activation: NONE, Method: SUSPENSION/PLATE",active; positive
same,mutagenic call,"Test System: MOUSE LYMPHOMA, Strain/Indicator: L5178Y (TK+/TK-), Metabolic Activation: RAT, LIVER, S-9, AROCLOR 1254, Method: SUSPENSION/PLATE",active; positive
CC(=O)OC[C@@]1(O)CC23CC[C@@H]4c5ccoc5C=C[C@@]4(C)[C@@H]2CC[C@@H]1C3,mutagenic call,"Test System: AMES SALMONELLA TYPHIMURIUM, Strain/Indicator: TM677, Metabolic Activation: NONE, Method: PREINCUBATION",inactive; negative
same,mutagenic call,"Test System: AMES SALMONELLA TYPHIMURIUM, Strain/Indicator: TM677, Metabolic Activation: RAT, LIVER, S-9, AROCLOR 1254, Method: PREINCUBATION",inactive; negative
Clc1ccc(Cl)nc1,mutagenic call,"Test System: AMES SALMONELLA TYPHIMURIUM, Strain/Indicator: TA97, Metabolic Activation: NONE, Method: STANDARD PLATE",inactive; negative
same,mutagenic call,"Test System: AMES SALMONELLA TYPHIMURIUM, Strain/Indicator: TA97, Metabolic Activation: RAT, LIVER, S-9, AROCLOR 1254, Method: STANDARD PLATE",inactive; negative
same,mutagenic call,[1],inactive; negative
same,mutagenic call,[2],inactive; negative
same,mutagenic call,[3],inactive; negative
same,mutagenic call,[4],inactive; negative
same,mutagenic call,[5],inactive; negative
same,mutagenic call,[6],inactive; negative
CC1(C)C(=O)[C@]2(C)CC[C@H]1C2,mutagenic call,"Test System: AMES SALMONELLA TYPHIMURIUM, Strain/Indicator: TA98, Metabolic Activation: HAMSTER, LIVER, S-9, AROCLOR 1254, Method: STANDARD PLATE",inactive; negative
same,mutagenic call,[1],inactive; negative
same,mutagenic call,[2],inactive; negative
same,mutagenic call,"Test System: AMES SALMONELLA TYPHIMURIUM, Strain/Indicator: TA100, Metabolic Activation: HAMSTER, LIVER, S-9, AROCLOR 1254, Method: STANDARD PLATE",inactive; negative
same,mutagenic call,[3],inactive; negative
same,mutagenic call,[4],inactive; negative
same,mutagenic call,"Test System: AMES SALMONELLA TYPHIMURIUM, Strain/Indicator: TA102, Metabolic Activation: HAMSTER, LIVER, S-9, AROCLOR 1254, Method: STANDARD PLATE",inactive; negative
same,mutagenic call,[5],inactive; negative
same,mutagenic call,[6],inactive; negative
same,mutagenic call,"Test System: AMES SALMONELLA TYPHIMURIUM, Strain/Indicator: TA1535, Metabolic Activation: HAMSTER, LIVER, S-9, AROCLOR 1254, Method: STANDARD PLATE",inactive; negative
same,mutagenic call,"Test System: AMES SALMONELLA TYPHIMURIUM, Strain/Indicator: TA1535, Metabolic Activation: NONE, Method: STANDARD PLATE",inactive; negative
same,mutagenic call,"Test System: AMES SALMONELLA TYPHIMURIUM, Strain/Indicator: TA1535, Metabolic Activation: RAT, LIVER, S-9, AROCLOR 1254, Method: STANDARD PLATE",inactive; negative
same,mutagenic call,"Test System: AMES SALMONELLA TYPHIMURIUM, Strain/Indicator: TA1537, Metabolic Activation: HAMSTER, LIVER, S-9, AROCLOR 1254, Method: STANDARD PLATE",inactive; negative
same,mutagenic call,"Test System: AMES SALMONELLA TYPHIMURIUM, Strain/Indicator: TA1537, Metabolic Activation: NONE, Method: STANDARD PLATE",inactive; negative
same,mutagenic call,"Test System: AMES SALMONELLA TYPHIMURIUM, Strain/Indicator: TA1537, Metabolic Activation: RAT, LIVER, S-9, AROCLOR 1254, Method: STANDARD PLATE",inactive; negative
same,mutagenic call,"Test System: Mouse lymphoma, Strain/Indicator: L5178Y (tk+/tk-), Metabolic Activation: None, Method: Suspension/plate",inactive; negative
same,mutagenic call,"Test System: Mouse lymphoma, Strain/Indicator: L5178Y (tk+/tk-), Metabolic Activation: Rat, Liver, S-9, Aroclor 1254, Method: Suspension/plate",active; positive
COc1c(N2C[C@@H]3CCCN[C@@H]3C2)c(F)cc2c(=O)c(C(=O)O)cn(C3CC3)c12,mutagenic call,"Test System: CHINESE HAMSTER V-79, Strain/Indicator: V-79 (HGPRT)/6-THIOGUANINE, Metabolic Activation: NONE, Method: STANDARD PLATE",inactive; negative
CCN(CC)c1ccc(N=O)cc1,mutagenic call,"Test System: AMES SALMONELLA TYPHIMURIUM, Strain/Indicator: TA100, Metabolic Activation: NONE, Method: FLUCTUATION TEST",active; positive
N.NC1CCCC1.O=C([O-])CC(O)C(=O)[O-].[Pt+2] (stereo unspecified),mutagenic call,"End Point: IN VIVO MICRONUCLEUS, Test System: BONE MARROW, Species: MOUSE, Strain/Sex: WILD TYPE/MALE, Route: INTRAPERITONEAL",active; positive
